Measured values reported in patent US6894068B2, “Substituted benzimidazoles as non-nucleoside inhibitors of reverse transcriptase” (The United States of America as represented by the …, priority 1997, dated 2005).
Where two headings read alike, the source gives them in different places.

Legend:
[1] = system: HIV-1 isolate Y181C; assay: Cytopathic cell killing assay, MT-4 cells, isolate Y181C; type: cell-based; details: Human immunodeficiency virus 1, MT4, read-out: EC50, isolate Y181C, Table 9; MT-4 cells
Source text: (§1) The various HIV isolates tested in the Figures are those corresponding to wild-type virus (NL4-3) and the other strains listed by their RT mutations. The three 4×AZT isolates included in the Figures represent AZT drug-resistant variants. For example, the 4×AZT/L100I isolate has five mutations: four mutations confer increased resistance to AZT, and the other mutation is located within the NNRTI binding pocket. TZB and nevir. (nevirapine) are two well-known NNRTIs, included in this experiment for comparison purposes.
(§2) In this Example, the antiviral and cellular toxicity of NNRTIs was investigated, using the cytopathic cell killing assay described by Yang (Yang et al., “Characteristics of a Group of Non-nucleoside Reverse Transcriptase Inhibitors with Structural Diversity and Potent Anti-Human Immunodeficiency Virus Activity,” Leukemia 9:S75-S85 [1995]). Briefly, in this method cells (e.g., the CEM-SS cell line, available from the NIAID AIDS Research and Reference Program [ARRRP]) were seeded at a density of 5×10^3 cells/well, into the wells of a 96-well microtiter plate. The cells were then infected with HIV virus (either mutant or WT), at a multiplicity of infection (MOI) previously determined to provide complete cell killing by 6 days of culture post-infection (e.g., MOI of 0.01-0.05). Each of the HIV isolates was pre-titered to induce equivalent levels of infection based on cell killing or virus production, prior to their use in these assays. A range of test compound concentrations was added to the wells in triplicate (e.g., serial half-log dilutions) to evaluate inhibition of HIV infection. Controls for each assay included drug controls (drug colorimetric control wells), drug cytotoxicity control wells (cells with drug), virus control wells (cells with virus), and cell viability controls (cells only). Positive control drugs (e.g. AZT and ddC) were also run in parallel.
(§3) After six days of incubation at 37° C., cell viability was determined spectrophotometrically at 450 nm for each well, using the metabolic reduction of XTT to a soluble colored formazan. (See, Gartner and Popovic, “Virus Isolation and Production, in Aldovini and Walker (eds.), Techniques in HIV Research, Stockton Press, NY, pp. […] [1991]; and Nara and Fischinger, “Quantitative Infectivity Assay for HIV-1 and HIV-2, ” Nature 332:469-470 [1988]).
(§4) The in vitro therapeutic index (TI50) was defined as the fold-difference between the EC50 and IC50. The results for the various compounds are included in FIGS. 8 and 19.

[2] = system: WT and HIV-1 variants containing amino acid substitutions in RT; type: cell-based; details: Table 4 isolates
Source text: In these Tables, antiviral data are reported as the quantity of drug in μM required to reduce cell killing or virus production by 50% (EC50). The various HIV isolates tested in the Figures are those corresponding to wild-type virus (NL4-3) and the other strains listed by their RT mutations. The three 4×AZT isolates included in the Figures represent AZT drug-resistant variants.
Briefly, in this method cells (e.g., the CEM-SS cell line, available from the NIAID AIDS Research and Reference Program [ARRRP]) were seeded at a density of 5×10^3 cells/well, into the wells of a 96-well microtiter plate. The cells were then infected with HIV virus (either mutant or WT), at a multiplicity of infection (MOI) previously determined to provide complete cell killing by 6 days of culture post-infection (e.g., MOI of 0.01-0.05). Each of the HIV isolates was pre-titered to induce equivalent levels of infection based on cell killing or virus production, prior to their use in these assays. A range of test compound concentrations was added to the wells in triplicate (e.g., serial half-log dilutions) to evaluate inhibition of HIV infection. Controls for each assay included drug controls (drug colorimetric control wells), drug cytotoxicity control wells (cells with drug), virus control wells (cells with virus), and cell viability controls (cells only). Positive control drugs (e.g. AZT and ddC) were also run in parallel.
as §3
Antiviral and toxicity data were reported as the quantity of drug required to inhibit 50% of virus-induced cell killing or virus production (EC50), and the quantity of drug required to […] (IC50). The in vitro therapeutic index (TI50) was defined as the fold-difference between the EC50 and IC50.

[3] = system: HIV-1 isolate K103N; assay: Cytopathic cell killing assay, MT-4 cells, isolate K103N; type: cell-based; details: Human immunodeficiency virus 1, MT4, read-out: EC50, isolate K103N, Table 4; MT-4 cells
Source text: as §1, §2, §3, §4

[4] = system: HIV-1 isolate K101E; assay: Cytopathic cell killing assay, MT-4 cells, isolate K101E; type: cell-based; details: Human immunodeficiency virus 1, MT4, read-out: EC50, isolate K101E, Table 4; MT-4 cells
Source text: as §1, §2, §3, §4

[5] = system: HIV-1 isolate 4xAZT/Y181C; assay: Cytopathic cell killing assay, MT-4 cells, isolate 4xAZT/Y181C; type: cell-based; details: read-out: EC50, isolate 4XAZT/Y181C; Table 9; MT-4 cells
Source text: as §1, §2, §3, §4

[6] = system: HIV-1 WT virus (NL4-3); assay: microbe, parasite or virus in culture; type: cell-based; details: for EC50: Human immunodeficiency virus 1, NL43, CEM-SS, read-out: EC50
Procedure: Evaluation of these compounds for the inhibition of HIV-1 was determined as the fifty percent cell culture inhibitory concentration (CIC50) in CEMSS cell culture with WT virus (NL4-3).
as §2, §3, §4

[7] = system: HIV-1 isolate V108I; assay: Cytopathic cell killing assay, MT-4 cells, isolate V108I; type: cell-based; details: Human immunodeficiency virus 1, MT4, read-out: EC50, isolate V108I, Table 4; MT-4 cells
Source text: as §1, §2, §3, §4

[8] = system: HIV-1 isolate Y188C; assay: Cytopathic cell killing assay, MT-4 cells, isolate Y188C; type: cell-based
Source text: as §1, §2, §3, §4

[9] = system: HIV-1 isolate Y188H; assay: Cytopathic cell killing assay, isolate Y188H; type: cell-based; details: Human immunodeficiency virus 1, read-out: EC50, isolate Y188H
Source text: as §1, §2, §3, §4

[10] = Table 7, drug concentration required to reduce cell killing or virus production by 50%, WT

With Cc1cccc2c1nc(-c1c(F)cccc1F)n2Cc1c(F)cccc1F [Compound 33, 1-(2,6-difluorobenzyl)-2-(2,6-difluorophenyl)-4-methylbenzimidazole] the EC50 [1] was 4300 nM, the “fold better in the inhibition of the various viral isolates than des-methyl analog 26” value [2] was 3- to 4 fold and the melting point was 182 to 186 °C. For the same compound, the EC50 [3] was 8100 nM, the EC50 [4] was 16700 nM and the EC50 [5] was 3500 nM. For the same compound, the “cytotoxicity and anti-viral effect, summary graph, result in words” value ([6]; FIGS. 10-12) was “very effective therapeutic dose”, the EC50 [6, 10] was 440 nM and the EC50 ([6]; Table 11, CEMSS/NL4-3, NRVC = no reduction in viral CPE) was 440 nM. The “therapeutic index at 50% (TC50)” value ([6]; difference between efficacy of the drug and cellular toxicity, FIG. 10) was “greater than one log in concentration”, the EC50 [7] was 2800 nM and the EC50 ([8]; Human immunodeficiency virus 1, MT4, read-out: EC50, isolate Y188C, Table 4, MT-4 cells) was 2.3 µM. It also gave an EC50 ([8]; Human immunodeficiency virus 1, MT4, read-out: EC50, isolate Y188C, Table 10, values in μM) of 2.3 µM.

With O=[N+]([O-])c1cccc2c1nc(-c1c(F)cccc1F)n2Cc1c(F)cccc1F [Compound 3100, 1-(2,6-difluorobenzyl)-2-(2,6-difluorophenyl)-4-nitrobenzimidazole] the melting point was 169 °C, the EC50 [9] was > 50000 nM and the EC50 [6, 10] was 2400 nM.
